Measurements as given in patent US7544700B2, “Pharmaceutically active sulfonamide derivatives bearing both lipophilic and ionisable moieties as inhibitors of protein JunKinases” (Laboratoires Serono SA, priority 2000, dated 2009).

Key:
JNK1 = JNK1 (Homo sapiens, UniProt P45983); assay: JNK1 inhibition; type: biochemical; details: read-out: inhibition (IC50) with regard to JNK1
GST-JNK3 = GST-JNK3 (Homo sapiens, UniProt P53779); assay: JNK3 in vitro assay (33P incorporation into c-jun, SPA); type: biochemical
GST-JNK3, sequence (P53779 whole entry): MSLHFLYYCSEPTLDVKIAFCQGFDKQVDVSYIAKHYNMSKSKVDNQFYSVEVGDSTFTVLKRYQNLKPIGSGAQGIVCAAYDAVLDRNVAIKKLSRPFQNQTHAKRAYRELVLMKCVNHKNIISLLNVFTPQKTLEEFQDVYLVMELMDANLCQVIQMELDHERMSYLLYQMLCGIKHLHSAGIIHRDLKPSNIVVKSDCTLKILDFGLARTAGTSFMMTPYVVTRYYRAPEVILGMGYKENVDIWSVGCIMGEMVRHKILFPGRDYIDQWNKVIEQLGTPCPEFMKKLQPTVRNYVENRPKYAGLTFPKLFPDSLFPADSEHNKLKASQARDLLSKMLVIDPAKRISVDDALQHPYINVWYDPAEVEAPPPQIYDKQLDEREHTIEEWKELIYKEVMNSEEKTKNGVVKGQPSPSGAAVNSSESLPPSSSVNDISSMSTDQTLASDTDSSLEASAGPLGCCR
Experimental: The phosphorylation of c-jun by JNK2 or JNK3 may be followed by monitoring the incorporation of ^33P into c-jun following the protocol below. The inhibitory activity of the compounds according to formula I, in respect of c-jun phosphorylation through JNK, is determined by calculating the phosphorylation activity of a JNK in the presence or absence of the test compounds according to formula I.
JNK3 and/or -2 assays are performed in 96 well NM plates: incubation of 0.5 μg of recombinant, pre-activated GST-JNK3 or GST-JNK2 with 1 μg of recombinant, biotinylated GST-c-Jun and 2 μM ^33γ-ATP (2 nCi/μl), in the presence or absence of compounds according to formula I and in a reaction volume of 50 μl containing 50 mM Tris-HCl, pH 8.0; 10 mM MgCl2; 1 mM Dithiothreitol, and 100 μM NaVO4. The incubation is performed for 120 min. at R.T and stopped upon addition of 200 μl of a solution containing 250 μg of Streptavidine-coated SPA beads (Amersham, Inc.)*, 5 mM EDTA, 0.1% Triton X-100 and 50 μM ATP, in phosphate saline buffer. After incubation for 60 minutes at RT, beads are sedimented by centrifugation at 1500×g for 5 minutes, resuspended in 200 μl of PBS containing 5 mM EDTA, 0.1% Triton X-100 and 50 μM ATP and the radioactivity measured in a scintillation β counter, following sedimentation of the beads as described above. By replacing biotinylated GST-c Jun with biotinylated GST-1ATF2 or biotinylated myelin basic protein, this assay may also be used to measure inhibition of pre-activated p38 and ERK MAP Kinases, respectively.

JNK1, sequence (P45983 whole entry, species assumed): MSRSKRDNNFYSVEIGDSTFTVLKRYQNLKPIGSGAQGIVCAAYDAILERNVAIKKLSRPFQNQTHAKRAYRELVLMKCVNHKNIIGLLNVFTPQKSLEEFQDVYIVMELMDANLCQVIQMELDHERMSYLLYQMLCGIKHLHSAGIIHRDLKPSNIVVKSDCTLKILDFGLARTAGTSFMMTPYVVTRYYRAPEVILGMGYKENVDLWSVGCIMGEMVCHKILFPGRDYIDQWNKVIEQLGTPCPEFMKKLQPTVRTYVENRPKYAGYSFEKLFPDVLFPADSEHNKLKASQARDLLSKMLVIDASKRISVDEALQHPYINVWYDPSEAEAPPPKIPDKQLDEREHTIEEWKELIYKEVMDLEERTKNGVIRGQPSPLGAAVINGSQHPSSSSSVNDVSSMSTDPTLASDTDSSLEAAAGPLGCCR

For `COc1cccc(C(=O)NCc2ccc(S(=O)(=O)N3CCC(NCc4ccc(C(F)(F)F)cc4)CC3)s2)c1` [Example 1, 3-Methoxy-N-{[5-({4-[(4-trifluoromethylbenzyl)amino]piperidin-1-yl}sulfonyl)thien-2-yl]methyl}benzamide], the IC50 (JNK1) was 100 to 700 nM and the IC50 (GST-JNK3) was < 600 nM.
